Measured values reported in patent US10689708B2, “Methods for treating diffuse large B-cell lymphoma and the use of biomarkers as a predictor of responsiveness to drugs” (Celgene Corporation, priority 2015, dated 2020).

Tested on: relapsed or refractory DLBCL
Assay: Compound A treatment of relapsed or refractory DLBCL patients stratified by 26-gene (Table 2) classifier: PFS and tumor measurement
Format: in vivo, human
Conditions: for PFS: Compound A treatment (FIG. 3)
Description: In another exemplary study, a computational decision function was applied to gene expression values for the 26 genes in Table 2 to predict the positive/negative outcome sub-group membership of relapsed or refractory DLBCL patients for responsiveness to Compound A treatment alone or in combination with other agents.
The response to Compound A treatment of each of a group of relapsed or refractory DLBCL patients was predicated based on the gene expression levels of 26 genes of Table 2, and the group of patients were classified into two populations—the population predicted to be responsive to Compound A treatment (26 genes positive population) and the other population predicted to be not responsive to Compound A (26 genes negative population).
The expression levels of the 26 genes were measured as follows: DLBCL lymph-node biopsies were formalin fixed and paraffin embedded. Nucleic acids obtained from the tissues were extracted using the Roche High Pure FPPET kit, according to the manufacturer's instructions. The RNA was quantitated using spectrophotometry (NanoDrop, Thermo Science, DE). Gene expression on approximately 200 nanograms of RNA was used to determine gene expression levels by means of NanoString technology (NanoString Technologies, WA). The total RNA was hybridized to the custom codesets at 65° C. overnight. The reaction was processed on the nCounter™ Prep Station and gene expression data was then acquired on the nCounter™ Digital Analyzer.
Then, the patients' response to Compound A treatment were measured by progression free survival (PFS). The results are shown in FIG. 3, and as shown, that there is a significant benefit, as measured by PFS, of 26 gene positive population (upper line) as compared to 26 genes negative population (lower line) (PFS 17.43 weeks in 26 genes positive population versus PFS 6.57 weeks in 26 genes negative population).
Additionally, the response to Compound A of DLBCL patients with historically poor prognosis was measured by Nanostring. […] This is comparison to patients in the 26 genes positive population (blue line), in which 4 patients obtained a durable clinical response of greater than 50% decrease in tumor size (see FIG. 8). Similar results were observed when examining patients with primary refractory DLBCL that had also had at least 3 or more prior lines of therapy (see FIG. 9).

Cc1nc2cccc(N)c2c(=O)n1C1CCC(=O)NC1=O (centres unmarked) [Compound A, 3-(5-amino-2-methyl-4-oxo-4H-quinazolin-3-yl)-piperidine-2,6-dione]
PFS at 6 months (26 genes negative population): 5.4%
PFS (26 genes negative population): 6.57 weeks
PFS at 6 months (26 genes positive population): 44.6%
PFS (26 genes positive population): 17.43 weeks
median PFS (ABC subtype of DLBCL (FIG. 7)): 12.1 weeks
median PFS (GCB subtype of DLBCL (FIG. 7)): 15.6 weeks
tumor measurement, clinical response (majority of patients in the 26 genes negative population (FIG. 5)): rapid progression or short responses
tumor measurement, clinical response (majority of patients in the 26 genes positive population (FIG. 4)): clinical response of greater than 50% decrease in tumor size and/or have stable disease
tumor measurement, clinical course (primary refractory disease (less than complete response to R-CHOP), 26 genes negative population (FIG. 8)): experienced rapid progression
patients who obtained a durable clinical response of greater than 50% decrease in tumor size (primary refractory disease (less than complete response to R-CHOP), 26 genes positive population (FIG. 8)): 4 patients
median PFS (unclassified subtype of DLBCL (FIG. 7)): 7 weeks
